Measured values taken from ChEMBL document CHEMBL1909046, “DrugMatrix in vitro pharmacology data”.

Tests used:
[1] = biological target: C-C chemokine receptor type 2 (Homo sapiens, UniProt P41597); type: cell membranes, CHO-K1, Membrane; settings: cho-k1; also: in other assays of this panel Not Active means under 50% inhibition at 10 µM
[2] = biological target: C-C chemokine receptor type 5 (Homo sapiens, UniProt P51681); type: cell membranes, HEK293, Membrane; settings: hek293; also: in other assays of this panel Not Active means under 50% inhibition at 10 µM
[3] = DRUGMATRIX: GABAA, Flunitrazepam, Central radioligand binding (ligand: [3H] Flunitrazepam); type: cell membranes, Rattus norvegicus, Wistar, Brain, Membrane; settings: Not Active = under 50% inhibition at 10 µM
[4] = DRUGMATRIX: Glutamate, AMPA radioligand binding (ligand: [3H] AMPA); type: cell membranes, Rattus norvegicus, Wistar, Cerebral cortex, Membrane; settings: Not Active = under 50% inhibition at 10 µM
[5] = DRUGMATRIX: Glutamate, Kainate radioligand binding (ligand: [3H] Kainic acid); type: cell membranes, Rattus norvegicus, Wistar, Brain, Membrane; settings: Not Active = under 50% inhibition at 10 µM
[6] = biological target: T1, Muscarinic acetylcholine receptor M4 (Homo sapiens, UniProt P08173); type: cell membranes, CHO-K1, Membrane; also: in other assays of this panel Not Active means under 50% inhibition at 10 µM
T1 sequence (P08173 whole entry): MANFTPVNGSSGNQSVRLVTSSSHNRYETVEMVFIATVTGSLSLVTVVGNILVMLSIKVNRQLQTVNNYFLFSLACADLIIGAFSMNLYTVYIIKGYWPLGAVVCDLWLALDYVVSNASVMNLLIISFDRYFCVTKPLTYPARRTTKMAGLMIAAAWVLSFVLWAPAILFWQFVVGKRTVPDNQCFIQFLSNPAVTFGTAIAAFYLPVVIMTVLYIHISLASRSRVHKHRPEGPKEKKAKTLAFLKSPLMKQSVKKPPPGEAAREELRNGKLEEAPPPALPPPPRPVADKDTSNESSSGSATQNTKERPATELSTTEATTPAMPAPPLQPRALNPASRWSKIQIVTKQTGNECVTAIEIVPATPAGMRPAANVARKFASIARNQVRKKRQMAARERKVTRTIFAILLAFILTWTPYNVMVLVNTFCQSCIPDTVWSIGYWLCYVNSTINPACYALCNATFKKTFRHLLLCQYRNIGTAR

[7] = DRUGMATRIX: Platelet-Derived Growth Factor (PDGF) radioligand binding (ligand: [125I] PDGF); type: cell-based; settings: nih3t3; Not Active = under 50% inhibition at 10 µM
Estrogen receptor beta = Estrogen receptor beta (Homo sapiens, UniProt Q92731); settings: sf9; also: in other assays of this panel Not Active means under 50% inhibition at 10 µM
Estrogen receptor beta, sequence (Q92731 whole entry): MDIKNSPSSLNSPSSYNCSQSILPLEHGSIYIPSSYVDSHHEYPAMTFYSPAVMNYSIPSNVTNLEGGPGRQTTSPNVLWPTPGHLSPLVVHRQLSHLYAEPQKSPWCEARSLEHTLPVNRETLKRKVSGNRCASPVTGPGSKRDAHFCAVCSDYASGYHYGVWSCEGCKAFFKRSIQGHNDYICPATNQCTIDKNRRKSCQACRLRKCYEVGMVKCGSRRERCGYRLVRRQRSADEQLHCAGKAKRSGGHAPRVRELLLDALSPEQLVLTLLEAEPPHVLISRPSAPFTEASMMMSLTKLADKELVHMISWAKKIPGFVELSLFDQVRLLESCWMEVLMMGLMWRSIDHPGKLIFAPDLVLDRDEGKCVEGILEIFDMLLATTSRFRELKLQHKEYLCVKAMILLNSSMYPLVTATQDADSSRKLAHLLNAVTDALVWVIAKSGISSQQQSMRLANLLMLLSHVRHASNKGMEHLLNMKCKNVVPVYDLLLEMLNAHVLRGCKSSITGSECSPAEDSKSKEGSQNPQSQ

C-C chemokine receptor type 5, sequence (P51681 whole entry): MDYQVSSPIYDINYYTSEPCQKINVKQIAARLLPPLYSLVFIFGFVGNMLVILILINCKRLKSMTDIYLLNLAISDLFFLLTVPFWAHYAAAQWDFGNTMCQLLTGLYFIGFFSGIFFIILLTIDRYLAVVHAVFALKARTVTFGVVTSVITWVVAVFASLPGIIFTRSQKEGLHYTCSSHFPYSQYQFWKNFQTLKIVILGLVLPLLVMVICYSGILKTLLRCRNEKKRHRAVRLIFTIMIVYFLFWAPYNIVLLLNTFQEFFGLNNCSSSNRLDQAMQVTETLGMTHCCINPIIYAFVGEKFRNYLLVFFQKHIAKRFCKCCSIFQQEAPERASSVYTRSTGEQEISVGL
C-C chemokine receptor type 2, sequence (P41597 whole entry): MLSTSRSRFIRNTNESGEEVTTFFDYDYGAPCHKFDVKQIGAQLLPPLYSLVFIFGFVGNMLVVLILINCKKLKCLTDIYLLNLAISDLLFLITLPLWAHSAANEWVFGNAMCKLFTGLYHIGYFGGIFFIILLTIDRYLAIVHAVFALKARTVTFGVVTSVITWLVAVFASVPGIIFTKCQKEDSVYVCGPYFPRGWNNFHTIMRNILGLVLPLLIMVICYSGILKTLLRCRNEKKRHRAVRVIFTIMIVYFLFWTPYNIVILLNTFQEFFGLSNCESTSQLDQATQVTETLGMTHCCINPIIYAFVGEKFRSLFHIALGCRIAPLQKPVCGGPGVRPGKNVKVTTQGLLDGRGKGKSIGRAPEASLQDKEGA

Compound | IC50 [1] | IC50 [2] | IC50 [3] | Ki [3] | IC50 [4] | Ki [4] | IC50 [5] | Ki [5] | IC50 ([6]; cho-k1) | IC50 [7] | Ki [7] | IC50 (Estrogen receptor beta) | IC50 ([6]; read-out: IC50) | Ki ([6]; read-out: Ki)
C=C1CC[C@H](O)C/C1=C/C=C1\CCC[C@]2(C)[C@@H]([C@H](C)CCCC(C)C)CC[C@@H]12 [CHOLECALCIFEROL] | Not Active | Not Active | Not Active | Not Active | Not Active | Not Active | Not Active | Not Active | Not Active | Not Active | Not Active | Not Active | – | –
CCOC(=O)C(C)(C)Oc1ccc(Cl)cc1 [CLOFIBRATE] | Not Active | Not Active | Not Active | Not Active | Not Active | Not Active | Not Active | Not Active | Not Active | Not Active | Not Active | Not Active | – | –
CC(=O)OCC(=O)[C@@]1(O)CC[C@H]2[C@@H]3CCC4=CC(=O)CC[C@]4(C)[C@H]3C(=O)C[C@@]21C [CORTISONE ACETATE] | Not Active | Not Active | Not Active | Not Active | Not Active | Not Active | Not Active | Not Active | Not Active | Not Active | Not Active | Not Active | – | –
O=c1ccc2ccccc2o1 [COUMARIN] | Not Active | Not Active | Not Active | Not Active | Not Active | Not Active | Not Active | Not Active | Not Active | Not Active | Not Active | Not Active | – | –
C[C@@H]1C[C@@H]([C@H](O)CC2CC(=O)NC(=O)C2)C(=O)[C@@H](C)C1 [CYCLOHEXIMIDE] | Not Active | Not Active | Not Active | Not Active | Not Active | Not Active | Not Active | Not Active | Not Active | Not Active | Not Active | Not Active | – | –
CN(C)/N=N/c1[nH]cnc1C(N)=O [DACARBAZINE] | Not Active | Not Active | Not Active | Not Active | Not Active | Not Active | Not Active | Not Active | Not Active | Not Active | Not Active | Not Active | – | –
COc1ccc2c(c1)[C@]13CCCC[C@@H]1[C@H](C2)N(C)CC3 [DEXTROMETHORPHAN] | Not Active | Not Active | Not Active | Not Active | Not Active | Not Active | Not Active | Not Active | Not Active | Not Active | Not Active | Not Active | – | –
COP(=O)(OC)OC=C(Cl)Cl [DICHLORVOS] | Not Active | Not Active | Not Active | Not Active | Not Active | Not Active | Not Active | Not Active | Not Active | Not Active | Not Active | Not Active | – | –
O=C(O)Cc1ccccc1Nc1c(Cl)cccc1Cl [DICLOFENAC] | Not Active | Not Active | Not Active | Not Active | Not Active | Not Active | Not Active | Not Active | Not Active | Not Active | Not Active | Not Active | – | –
C[C@H]1O[C@@H](O[C@H]2[C@@H](O)C[C@H](O[C@H]3[C@@H](O)C[C@H](O[C@H]4CC[C@@]5(C)[C@H](CC[C@@H]6[C@@H]5CC[C@]5(C)[C@@H](C7=CC(=O)OC7)CC[C@]65O)C4)O[C@@H]3C)O[C@@H]2C)C[C@H](O)[C@@H]1O [DIGITOXIN] | Not Active | Not Active | Not Active | Not Active | Not Active | Not Active | Not Active | Not Active | Not Active | Not Active | Not Active | Not Active | – | –
CCN1CC(CCN2CCOCC2)C(c2ccccc2)(c2ccccc2)C1=O (stereo not drawn) [DOXAPRAM] | Not Active | Not Active | Not Active | Not Active | Not Active | Not Active | Not Active | Not Active | Not Active | Not Active | Not Active | Not Active | – | –
Cn1c(=O)c2c(ncn2CC2OCCO2)n(C)c1=O [DOXOFYLLINE] | Not Active | Not Active | Not Active | Not Active | Not Active | Not Active | Not Active | Not Active | Not Active | Not Active | Not Active | Not Active | – | –
COc1cccc2c1C(=O)c1c(O)c3c(c(O)c1C2=O)C[C@@](O)(C(=O)CO)C[C@@H]3O[C@H]1C[C@H](N)[C@H](O)[C@H](C)O1 [DOXORUBICIN] | Not Active | Not Active | Not Active | Not Active | Not Active | Not Active | Not Active | Not Active | Not Active | Not Active | Not Active | Not Active | – | –
COc1cccc2c1C(=O)c1c(O)c3c(c(O)c1C2=O)C[C@@](O)(C(=O)CO)C[C@@H]3O[C@H]1C[C@H](N)[C@@H](O)[C@H](C)O1 [EPIRUBICIN] | Not Active | Not Active | Not Active | Not Active | Not Active | Not Active | Not Active | Not Active | Not Active | Not Active | Not Active | Not Active | – | –
C[C@]12CC[C@@H]3c4ccc(OC(=O)c5ccccc5)cc4CC[C@H]3[C@@H]1CC[C@@H]2O [ESTRADIOL BENZOATE] | Not Active | Not Active | Not Active | Not Active | Not Active | Not Active | Not Active | Not Active | Not Active | Not Active | Not Active | Not Active | – | –
CC[C@@H](CO)NCCN[C@@H](CC)CO [ETHAMBUTOL] | Not Active | Not Active | Not Active | Not Active | Not Active | Not Active | Not Active | Not Active | Not Active | Not Active | Not Active | Not Active | – | –
CC1(C)O[C@@H]2C[C@H]3[C@@H]4C[C@H](F)C5=CC(=O)C=C[C@]5(C)[C@H]4[C@@H](O)C[C@]3(C)[C@]2(C(=O)CO)O1 [FLUNISOLIDE] | Not Active | Not Active | Not Active | Not Active | Not Active | Not Active | Not Active | Not Active | Not Active | Not Active | Not Active | Not Active | – | –
CC1(C)O[C@@H]2C[C@H]3[C@@H]4C[C@H](F)C5=CC(=O)CC[C@]5(C)[C@H]4[C@@H](O)C[C@]3(C)[C@]2(C(=O)CO)O1 [FLURANDRENOLIDE] | Not Active | Not Active | Not Active | Not Active | Not Active | Not Active | Not Active | Not Active | Not Active | Not Active | Not Active | Not Active | – | –
CN(C)c1ccc(C(=C2C=CC(=[N+](C)C)C=C2)c2ccc(N(C)C)cc2)cc1.[Cl-] [GENTIAN VIOLET] | Not Active | Not Active | Not Active | Not Active | Not Active | Not Active | Not Active | Not Active | – | Not Active | Not Active | Not Active | 1010 nM | 140 nM
NC(=O)NO [HYDROXYUREA] | Not Active | Not Active | Not Active | Not Active | Not Active | Not Active | Not Active | Not Active | Not Active | Not Active | Not Active | Not Active | – | –
CC(C)Cc1ccc(C(C)C(=O)O)cc1 (stereo not drawn) [IBUPROFEN] | Not Active | Not Active | Not Active | Not Active | Not Active | Not Active | Not Active | Not Active | Not Active | Not Active | Not Active | Not Active | – | –
